This note sets out measurements from ChEMBL document CHEMBL3297694, “Naturally occurring polyphenolic inhibitors of amyloid beta aggregation” (Bioorg Med Chem Lett, 2014).

Activity calls are given as the source filed them. The rule behind the calls is not given here.

Test [1] concerns the target T1, Amyloid-beta precursor protein (Homo sapiens, UniProt P05067). The experiment in a line: Inhibition of amyloid beta1-42 (unknown origin) aggregation assessed as amyloid fibril formation tested at 1:1 compound to peptide ratio after 17 hrs by thioflavin T fluorescence method. The arrangement: scale not given: the % may be the effect or the level left.
The target in test [2] is T1, Amyloid-beta precursor protein. The experiment in a line: Inhibition of amyloid beta1-42 (unknown origin) aggregation assessed as amyloid fibril formation tested after 17 hrs by thioflavin T fluorescence method.
The target is the same in test [3]. Briefly: Inhibition of amyloid beta1-42 (unknown origin) aggregation assessed as reduction in amyloid fibril formation at 40 uM after 5 days by Transmission electron microscopy.
Test [4] has the same target. The experiment in a line: Inhibition of amyloid beta1-40 (unknown origin) aggregation.
For test [5] the target is unchanged. Briefly: Inhibition of amyloid beta1-42 (unknown origin) aggregation assessed as reduction in large aggregates at 100 uM after 20 mins and 24 hrs by dynamic light scattering method.
For test [6] the target is unchanged. The experiment in a line: Inhibition of amyloid beta1-42 (unknown origin) aggregation assessed as reduction in large aggregates at 400 uM after 20 mins and 2 hrs by size exclusion chromatography test. On the technique in general: Size exclusion chromatography separates by hydrodynamic size, large species first.

T1 sequence (P05067 whole entry): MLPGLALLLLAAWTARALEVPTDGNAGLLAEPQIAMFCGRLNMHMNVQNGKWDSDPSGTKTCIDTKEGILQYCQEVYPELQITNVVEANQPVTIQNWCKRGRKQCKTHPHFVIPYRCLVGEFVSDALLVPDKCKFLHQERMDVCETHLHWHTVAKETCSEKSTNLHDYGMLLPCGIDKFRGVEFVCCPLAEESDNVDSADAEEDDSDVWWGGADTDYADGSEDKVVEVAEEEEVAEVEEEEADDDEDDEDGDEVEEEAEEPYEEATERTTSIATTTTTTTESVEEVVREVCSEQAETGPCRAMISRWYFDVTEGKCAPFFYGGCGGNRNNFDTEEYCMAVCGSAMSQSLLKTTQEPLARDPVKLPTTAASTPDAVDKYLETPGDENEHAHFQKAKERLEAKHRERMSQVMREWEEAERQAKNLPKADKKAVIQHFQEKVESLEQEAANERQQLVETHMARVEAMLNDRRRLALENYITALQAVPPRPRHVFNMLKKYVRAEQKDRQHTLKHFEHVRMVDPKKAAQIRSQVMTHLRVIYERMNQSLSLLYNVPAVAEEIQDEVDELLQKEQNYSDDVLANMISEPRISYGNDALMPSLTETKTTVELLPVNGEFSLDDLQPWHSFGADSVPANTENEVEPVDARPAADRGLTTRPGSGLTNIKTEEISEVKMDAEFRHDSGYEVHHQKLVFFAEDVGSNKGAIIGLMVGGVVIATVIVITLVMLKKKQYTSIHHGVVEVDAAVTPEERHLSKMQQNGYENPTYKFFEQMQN

Usually IC50 stands for the concentration needed to halve the response being measured. For the molecule `O=C(O[C@@H]1Cc2c(O)cc(O)cc2O[C@@H]1c1cc(O)c(O)c(O)c1)c1cc(O)c(O)c(O)c1` [EPIGALOCATECHIN GALLATE], in test [1], the Activity amounted to 16%. The half-maximal inhibitory concentration (IC50) came to 4.6 µM in test [2] and 3 µM in test [4]. Moreover, the “inhibition of amyloid fibril formation (active/inactive)” value (from here on “inhibition … (active/inactive)”) in test [3] is “Active”.
Consider `O=c1cc(-c2ccc(O)c(O)c2)oc2cc(O)cc(O)c12` [LUTEOLIN], for which the Activity in test [1] came to 14.4%. For the same molecule, the IC50 in test [2] stood at 6.4 µM. The “inhibition … (active/inactive)” value in test [3] was “Active”.
Consider `COc1c(-c2ccc(O)c(O)c2)oc2c(O)c(O)ccc2c1=O`, for which the Activity in test [1] was determined as 21%. In addition, in test [5], the inhibition entry is “Active”. Also, the IC50 in test [2] is 5.4 µM. The “inhibition … (active/inactive)” value in test [3] is “Active”. Further, the result in test [6] was Active.
Consider `O=C1/C(=C/c2ccc(O)c(O)c2)Oc2c1ccc(O)c2O`, for which, in test [1], the Activity turned out to be 18.5%. The half-inhibitory concentration (IC50) in test [2] turned out to be 2.7 µM. Also, the “inhibition … (active/inactive)” value in test [3] was “Active”.
